Experimental data published in patent US10709724B2, “Methods of treating mitochondrial dysfunction” (Ecole Polytechnique Federale de Lausanne (EPFL), priority 2011, dated 2020).

Key:
SIRT3 = SIRT3 activity (Ndufa9, SOD2 acetylation) in NR-treated HEK293T cells; type: cell-based, human; conditions: 0.5 mM, 24 hrs
Experimental: Immunoprecipitation, SDS-PAGE, Western Blotting. Cells were lysed in lysis buffer (50 mM Tris, […], EDTA 1 mM, NP40 1%, nicotinamide 5 mM, Na-butyrate 1 in M, protease inhibitors pH7.4). Proteins were separated by SDS-PAGE and transferred onto nitrocellulose membranes. The origin of the primary and secondary antibodies used can be found as supplemental experimental procedures. Reactions were developed by enhanced chemiluminescence (Amersham, Little Chalfont, UK), PGC-1α, FOXO1 and Ndufa9 acetylation levels were analyzed by immunoprecipitation from cellular or nuclear lysates of tissues with anti-PGC-1α (Millipore), anti-FOXO1 (Cell Signaling, Danvers, Mass., USA) and anti-Ndufa9 (Abcam) antibody followed by Western blot using an acetyl-lysine antibody (Cell Signaling) that was normalized to total PGC-1a/FOXO1/Ndufa9 levels (Lagouge et al., 2006; Rodgers et al., 2005). In HEK293T cells HA-tagged PGC-1α was overexpressed and was immunoprecipitated using an anti-HA. In C2C12 myotubes, FLAG-HA tagged PGC-1α was introduced through adenoviral delivery 2 days before treatments, then IP was performed using anti-FLAG antibody and samples were processed as described. All blots were quantified by densitometry using ImageJ software. Poly(ADP-Ribose) detection was performed as previously described with slight modifications (Bai et al., PARP-1 inhibition increases mitochondrial metabolism through SIRT1 activation. Cell Metab 13, 461-468. (2011)) Briefly, PAR was detected by using a monoclonal anti-PAR antibody (Alexis, Lausanne Switzerland) by Western blotting of total protein lysates, using either […] of total worm protein lysates, […] of liver protein lysate or 200 g of muscle total protein extracts. PGC-1 acetylation was determined using PGC-1 immunoprecipitates from 2 mg of protein extracts, as described in Canto et al. (Canto et al., AMPK regulates energy expenditure by modulating NAD+ metabolism and SIRT1 activity. Nature 458, 1056 (2009)). […]

C2C12 myotubes = test: Mitochondrial gene expression, mtDNA and membrane potential in C2C12 myotubes; type: cell-based
Experimental: Cell Culture, Transfection, Adenoviral Infection and Mitochondrial Characterization. HEK293T, MEF and C2C12 cells were cultured in DMEM (4.5 g/l glucose, 10% FCS). PARP-1^+/+ and PARP-1^−/− MEFs were prepared as described in (Menissier-de Murcia et al., 1997). SIRT1 and MEFs were kindly provided by Fred Alt (Chea et al., 2005). SIRT3 MER were established according to standard techniques from conditional SERT3^−/− mice. (Picard, F., Gehin, M., Annicotte, J., Rocchi, S., Champy, M. F., O'Malley, B. W., Chambon, P., and Auwerx, J. (2002). SRC-1 and TIF2 control energy balance between white and brown adipose tissues. Cell 111, 931-941.) Deletion of the SIRT3 gene was induced via infection with adenovirus encoding for the Cre recombinase. HEK293T cells were transfected using JetPei reagent (Polyplus Transfections, Illkirch, France) according to the manufacturer's instructions. C2C12 cells were differentiated in DMEM (4.5 g/L glucose, 2% horse serum) after reaching confluency for 2 days, followed by 2 days of PJ34 treatment (10 μM). PARP-1 shRNA constructs were described in (Shah et al., 2005). Human PARP-1 and siRNAs were obtained from Dharmacon (Thermo Scientific). The adenovirus encoding for FLAG-HA-PGC-1α, control and SIRT1 shRNAs were a kind gift from Pere Puigserver and were used (MOI=100) in C2C12 myotubes as described (Canto et al., 2009). Mitochondrial charge determination was performed as described (Bai et al., 2001) and DNA strand breaks were quantified by TUNEL assays according to the manufacturer's instructions (Millipore).
mRNA and mtDNA Analysis. Total RNA was prepared using TRIzol (Invitrogen) according to the manufacturer's instructions. RNA was treated with DNase, and 2 μg of RNA was used for reverse transcription (RT). cDNA was purified on QIAquick PCR cleanup columns (Qiagen, Valencia, Calif., USA). 50× diluted cDNA was used for RT-quantitative PCR (RT-VCR) VCR) reactions (Bai et al., 2007). The RT-qPCR reactions were performed using the Light-Cycler system (Roche Applied Science) and a qPCR Supermix (Qiagen) with the primers for mice summarized in Table 1 and 4, and with the primers for worms summarized on Table 7. mtDNA quantification was performed as described (Lagouge et al., 2006) with the primers indicated in Table 2 and 5.
Mitochondrial DNA Measurement The assay was performed as described (Lagouge et al., 2006). DNA. was extracted using the standard proteinase K digestion following phenol-chloroform extraction. Mitochondrial and genomic DNA was determined using specific primers in qPCR reactions (primers summarized in Table 2 and 5.) and was expressed as percentage of WT.

SMILES	SOD2 activity (SIRT3)	acetylation status of Ndufa9 (SIRT3)	acetylation status of SOD2 (SIRT3)	mitochondrial DNA content (C2C12 myotubes; 1 μM, 48 h)	mitochondrial membrane potential (C2C12 myotubes; 1 μM, 48 h)	expression of mitochondrial genes (Ndufa2, Ndufa3, MCAD, PDK4, UCP3) (C2C12 myotubes; 48 hrs)	UCP3 mRNA expression with SIRT1 knock-down (C2C12 myotubes; SIRT1 shRNA)	mitochondrial gene expression with SIRT1 knock-down (C2C12 myotubes; SIRT1 shRNA)
NC(=O)c1ccc[n+]([C@@H]2O[C@H](CO)[C@@H](O)[C@H]2O)c1 [NR, nicotinamide riboside]	enhanced SOD2 activity	reduced the acetylation status	reduced the acetylation status	–	–	–	–	–
CN(C)CC(=O)Nc1ccc2[nH]c(=O)c3ccccc3c2c1 [PJ34]	–	–	–	higher mitochondrial DNA content	higher mitochondrial potential	increased expression of several mitochondrial genes	persistent increase in UCP3 mRNA expression	largely blunted
